Data reported in patent publication US8680129B2, “Compounds, composition, methods, targets for cancer therapy” (priority 2008, dated 2014).
Where two headings read alike, the source gives them in different places.

Key:
[1] = system: SK-Mel-5 cells; test: WST-3 with apigenin, cell viability by CCK8; assay type: cell-based, human; details: for cell death, single agent: apigenin or WST-3 alone
Method: (§1) Method: UM-SCC6, HT1080, Cal27, SK-Mel-5, and HEKa cells were treated with 50 or 100 μM WST-3 or 10 or 30 μM apigenin alone, or combination of WST-3 and apigenin at different concentrations for 4 hours with untreated cells as control, then, changed to normal growth medium and remained culture in this medium for another 24 hours. After the 24 hours culture, cell viabilities were measured with CCK8 Kit. Data were normalized to % of untreated control cells.

[2] = system: non cancer HEKa cells; test: WST-3 with apigenin, cell viability by CCK8; assay type: cell-based, human; details: for cell death, single agent: apigenin or WST-3 alone
Method: as §1

[3] = system: UM-SCC6, HT1080, Cal27, SK-Mel-5, and HEKa cells; test: WST-3 or apigenin alone, cell viability, all tested lines; assay type: cell-based, human; details: 50 µM WST-3 or 30 μM apigenin alone, 4 hours then 24 hours
Method: as §1

[4] = system: HT1080 cells; test: pUC19 DNA transfection plus chemotherapeutic drug, cell viability; assay type: cell-based, human; details: for IC50 of Cis-Platinum: HT1080 cells
Method: HT1080 Cells were transfected with pUC19 DNA, pcDNA3, pUC19+pcDNA3, IKK1-KA+pUC19, IKK2-KA+pUC19, and IKK1-KA+IKK2-KA+pUC19, IKK1-KA+pcDNA3, IKK2-KA+pcDNA3, or IKK1-KA+IKK2-KA+pcDNA3, for 48 hours before the treatment of chemotherapy drugs at various doses. Cell viability was measured in 72 and 96 hours after drug treatment.
Drug treatment: Cis-Platinum 30 ng/ml-3 μg/ml (FIG. 6D), Paclitaxel 1 nM-10 μM (FIG. 6C), 5-FU 50 nM-500 μM (data not shown), Doxorubicin 30 nM-3.3 μM (data not shown).

[5] = system: HT1080 cells; test: siRNA or Puc19 transfection combined with Taxel, cell viability by CCK8; assay type: cell-based, human; details: 72 hours after the treatment
Method: Method: HT1080 cells transfected with siRNAs that were derived from Puc19 DNA sequence and the siRNAs that targeting the corresponding genes that are the targets of the Puc19 derived siRNAs for 24 hours, then, treated with Taxel at 3, 10, 30, and 100 nM for 48 hours. After the 48 hours of Taxel treatment, cells in culture were changed to normal growth medium for 24 to 72 hours. Cell viability was monitored by CCK8 Kit every 24 hours. Data are normalized to % of untreated control cells. The siRNAs that used for this study includes siRNA#1, siRNA#2, siRHA#3, siRNA targeting TRPC6, SH3PXD2B, C6orf108, TTBK1, MAGI3, and TMEM182 as well as combination of siRNA#2+#3, and siRNA#1+#2+#3+#4+#5 (siRNAΣ1-5).

[6] = system: UM-SCC-6 cells; test: pUC19 DNA transfection plus chemotherapeutic drug, cell viability; assay type: cell-based, human; details: for IC50 of Cis-Platinum: UM-SCC-6 cells; for IC50: Homo sapiens, read-out: IC50 of 5-FU
Method: UM-SCC-6 cells were transfected with pUC19 DNA, pcDNA3, pUC19+pcDNA3, IKK1-KA+pUC19, IKK2-KA+pUC19, and IKK1-KA+IKK2-KA+pUC19, IKK1-KA+pcDNA3, IKK2-KA+pcDNA3, or IKK1-KA+IKK2-KA+pcDNA3, for 48 hours and, treated with variable doses of 5-FU (FIG. 6A) or Cis-Platinum (FIG. 6B) for […] respectively. Cell viabilities were measured in 72 and 96 hours respectively after drug treatment.

[7] = system: UM-SCC6, Cal27 and HEKa cells; test: Modified WST-1r and Apigenin, cancer versus non-cancer cells, single agents; assay type: cell-based, human; details: 10% modified WST-1r (mPMS 20 μM, WST-1c 1 mM) or Apigenin 30 or 100 μM, 4 hours then 24 hours
Method: Comparison of cell responses to modified WST-1r and Apigenin combination treatment between cancer cells and non-cancer cells. UM-SCC6, Cal27 human head and neck cancer cell lines and primary cultured human […] keratinocytes (HEKa) as labeled were treated with 10% modified WST-1r (mPMS 20 μM, WST-1c 1 mM) with (WST-1r 10) or without (WST-1r 0) 10% modified WST-1r in combination with 0 (Apigenin 0), 30 (Apigenin 30) or 100 (Apigenin 100) μM Apigenin for 4 hours, then, changed to apigenin in the corresponding concentrations for another 24 hours.

[8] = system: A431 cells; test: WST-1r and apigenin dose-response, cell viability by CCK8; assay type: cell-based
Method: (§2) Method: UM-SCC6, MDA-MB-231, Cal27, HT1080, T294, B6-5 and A431 cells were treated with 3% or 10% of WST-1r or 10, 30, or 100 μM apigenin or combination of variable concentrations of WST-1r with apigenin in parallel with untreated control cells and DMSO control for 4 hours, then, the treatments were removed and the cells, thus, treated were changed to normal growth medium and maintained in culture for another 24 hours. DMSO was used as vehicle control. Cell viabilities were measured by CCK8 Kit and normalized to % of untreated control calls.

[9] = system: MDA-MB-231 cells; test: as above; assay type: cell-based
Method: as §2

[10] = system: phosphorylated JNK in UM-SCC6 cells; test: JNK phosphorylation (FACE Kit); assay type: cell-based, human; details: 4 hours
Method: Method: UM-SCC6 cells were treated with WST-1r and apigenin at the indicated doses for 4 hours, and then phosphorylated JNK and total JNK were measured in parallel with FACE Kit (Qiogen). The resulting data were normalized to total cell number measured by crystal violet staining The phosphorylated JNK from each measurement were normalized to the ratio of phosphorylated JNK over total JNK values.

[11] = system: ROS generation in UM-SCC6 cells; test: Dose response of ROS generation (CM-H2-DCFDA fluorescence); assay type: cell-based, human
Method: Method: UM-SCC6 cells were labeled with 10 μM CM-H2-DCFDA for 15 minutes and then treated with WST-1r or CCK8 at the indicated amounts in combination with variable doses of apigenin (A) or IKK Inhibitor III (B) for 4 hours. Fluorescence at Ex485/Em535 were measured for detecting ROS generation that labeled by the CM-H2-DCFDA.

[12] = system: UM-SCC6 cells; test: CCK8, XTT, WST-1r comparison in combination with apigenin, cell viability; assay type: cell-based, human; details: for IC50: Homo sapiens, read-out: Apigenin 1050
Method: Method: HT1080 and UM-SCC6 cells were treated with 10% of WST-1r, CCK8 or XTT in combination with variable doses of apigenin for 4 hours and, then changed to normal growth medium for another 24 hours. Cell viability was measured with CCK8 kit.

[13] = system: UM-SCC6 cells; test: mPMS dose-response with WST-1c and apigenin, cell viability; assay type: cell-based, human; details: mPMS variable with 1 mM WST-1c and 10, 30 or 100 μM apigenin
Method: (§3) Method: A & B: HT1080 (FIG. 16A) and UM-SCC6 (FIG. 16B) cells were treated with variable concentrations of mPMS as indicated in combination with 1 mM WST-1c and 10, 30 or 100 μM apigenin for 4 hours and, then, changed to normal growth medium for another 24 hours. Cell viabilities were measured by CCK8 Kit. 1 mM WST-1 only, 0.12 mM mPMS only and 10% WST-1r were used as parallel control. AP 0: Untreated Control, AP 10: 10 μM Apigenin, AP 30: 30 μM Apigenin, AP 100: 100 μM Apigenin.

[14] = system: HT1080 cells; test: as above; assay type: cell-based, human; details: mPMS variable with 1 mM WST-1c and 10, 30 or 100 μM apigenin
Method: as §3

[15] = system: UM-SCC6 cells; test: Other tetrazolium salts as substitutes of WST-1r with apigenin, cell viability; assay type: cell-based, human; details: 1 mM WST-1, 0.4 mM WST-3, 0.5 mM WST-4, 0.5 mM WST-5, 0.12 mM mPMS; apigenin 10, 30 or 100 μM; 4 hours then 24 hours
Method: (§4) Method: HT1080 and UM-SCC6 cells were treated with 1 mM WST-1, 0.4 mM WST-3, 0.5 mM WST-4, 0.5 mM WST-5 or 0.12 mM mPMS alone or each of the WST-3, WST-4, and WST-5 at the same concentration in combination with 0.12 mM mPMS (0.4 mM WST-3+0.12 mM mPMS, 0.5 mM WST-4+0.12 mM mPMS, 0.5 mM WST-5+0.12 mM mPMS) plus 10, 30 or 100 μM apigenin for 4 hours and, then changed to normal growth medium for another 24 hours. Cell viability was measured with CCK8 Kit.

[16] = system: HT1080 cells; test: as above; assay type: cell-based, human; details: 1 mM WST-1, 0.4 mM WST-3, 0.5 mM WST-4, 0.5 mM WST-5, 0.12 mM mPMS; apigenin 10, 30 or 100 μM; 4 hours then 24 hours
Method: as §4

[17] = combination of 30 μM apigenin and WST-3
[18] = 4 hours, then 24 hours normal medium, combination 3% WST-1r with 100 μM apigenin or 10% WST-1r with 30 μM apigenin

## O=[N+]([O-])c1ccc(-[n+]2nc(-c3ccc(S(=O)(=O)[O-])cc3S(=O)(=O)[O-])nn2-c2ccc(I)cc2)c([N+](=O)[O-])c1.[Na+] [WST-3, 2-(4-Iodophenyl)-3-(2,4-dinitrophenyl)-5-(2,4-disulfophenyl)-2H-tetrazolium, sodium salt]
[1]
  cell death, single agent: dose dependent but limited cell death
[1]; [17]
  IC50: 20 µM
[1]; combination with 30 μM apigenin
  WST-3 IC50 in SK-Mel-5 compared with HEKa cells: one fold less than that from HEKa cells
[2]
  cell death, single agent: limited cell death
[2]; [17]
  IC50: 40 µM
[3]
  cell death, single agent: no or limited effect of cell death

## CC(=O)O[C@H]1C(=O)[C@@]2(C)[C@H]([C@H](OC(=O)c3ccccc3)[C@]3(O)C[C@H](OC(=O)[C@H](O)[C@@H](NC(=O)c4ccccc4)c4ccccc4)C(C)=C1C3(C)C)[C@]1(OC(C)=O)CO[C@@H]1C[C@@H]2O [Paclitaxel]
[4]; Homo sapiens, HT-1080, pUC19 transfected HT1080 cells, read-out: IC50 of texal
  IC50: 0.02 µM
[4]; untransfected HT1080 cells
  response to texal: did not show any response upto 100 nM
[4]
  untransfected cells at 96 hours after drug treatment: recovered and grown up
[5]; Homo sapiens, HT-1080, Contrl (untransfected)
  IC50: 0.06 µM
[5]; Taxel 3-100 nM
  cell survival / cell death: dose dependent cell death

## N.N.[Cl][Pt][Cl] [Cis-Platinum, cis-diamminedichloroplatinum]
[4]; pUC19 transfected
  IC50 of Cis-Platinum: 0.3 µg/mL
[4]; untransfecte control
  IC50 of Cis-Platinum: 3 µg/mL
[4]
  untransfected cells at 96 hours after drug treatment: recovered and grown up
[6]; pUC19 transfected
  IC50 of Cis-Platinum: 1 µg/mL
[6]; untransfecte control
  IC50 of Cis-Platinum: 3 µg/mL

## O=c1cc(-c2ccc(O)cc2)oc2cc(O)cc(O)c12 [Apigenin, 4H-1-benzopyran-4-one,5,7-dihydroxy-2-(4-hydroxy-phenyl)-(9CI)]
[7]
  cell viabilities, single agent treatment: little effect on cell viabilities
[1]
  cell death, single agent: dose dependent but limited cell death
[2]
  cell death, single agent: limited cell death
[3]
  cell death, single agent: no or limited effect of cell death
[8]; [18]
  cell death / cell survival: little effect on cell survival
[8]; Homo sapiens, A-431, in the presence of 10% WST-1r
  IC50: 10 µM
[9]; [18]
  cell death / cell survival: little effect on cell survival
[9]; Homo sapiens, MDA-MB-231, in the presence of 10% WST-1r
  IC50: 10 µM
[10]
  phosphorylation of JNK (ratio phosphorylated over total JNK): dose dependent induction of phosphorylation of JNK
[11]; 4 hours
  ROS generation, agent alone: no effect on ROS generation
[11]; apigenin combined with CCK8, apigenin dose dependent
  ROS generation: increase the ROS generation
[12]; CCK8+apigenin
  Apigenin 1050: did not reached 1050
[12]; 10% WST-1r treated UM-SCC6 cells
  IC50: 5 µM
[12]; 10% XTT treated UM-SCC6 cells
  IC50: 25 µM
[12]; apigenin only
  Apigenin 1050: did not reached 1050
[13]
  cell death: dose dependent cell death
[14]
  cell death: dose dependent cell death

## COc1cc(-c2ccc(-n3nc(-c4ccc(C(=O)N(CCS(=O)(=O)[O-])CCS(=O)(=O)[O-])cc4)n[n+]3-c3nc4ccccc4s3)c(OC)c2)ccc1-n1nc(-c2ccc(C(=O)N(CCS(=O)(=O)[O-])CCS(=O)(=O)[O-])cc2)n[n+]1-c1nc2ccccc2s1.[Na+].[Na+] [WST-5]
[15]
  synergistic effect on inducing cell death in combination with apigenin: no such effect
[16]
  synergistic effect on inducing cell death in combination with apigenin: no such effect

## O=c1[nH]cc(F)c(=O)[nH]1 [5-FU, 5-fluoro-2,4-(1H,3H) pyrimidinedione]
[6]; pUC19 transfected UM-SCC6 cells
  IC50: 200 µM
[6]; untransfected UM-SCC6 cells
  IC50: > 1000 µM
